Reference: PubChem BioAssay AID2060884 (Molecular Pharmacology Branch, DTP, NCI, 2025)

System: NCI-H929 complex spheroids, viability % test/control
Assay: Anticancer human tumor NCI-H929 cell line growth inhibition [RAS];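 note: compound exposure lasted seven days before viability was read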;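 for viability, T/C: 100% = DMSO vehicle control viability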
Conditions: for IC50: curve of first compound; for viability, T/C: stronger effect = lower value
Outline: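 Agents were tested in combination matrices in half-log decrements from a top concentration at or near clinical Cmax (10 microM if undetermined). Targets were multi-cell spheroids of tumour lines plus HUVEC and MSC stromal cells.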

[1] = second compound 0.0316 µM, first compound 0.0316 µM
[2] = second compound 0.0316 µM, first compound 0.1 µM
[3] = second compound 0.0316 µM, first compound 0.316 µM
[4] = second compound 0.0316 µM, first compound 1 µM
[5] = second compound 0.1 µM, first compound 0.0316 µM
[6] = second compound 0.1 µM, first compound 0.1 µM
[7] = second compound 0.1 µM, first compound 0.316 µM
[8] = second compound 0.1 µM, first compound 1 µM
[9] = second compound 0.316 µM, first compound 0.0316 µM
[10] = second compound 0.316 µM, first compound 0.1 µM
[11] = second compound 0.316 µM, first compound 0.316 µM
[12] = second compound 0.316 µM, first compound 1 µM
[13] = second compound 1 µM, first compound 0.0316 µM
[14] = second compound 1 µM, first compound 0.1 µM
[15] = second compound 1 µM, first compound 0.316 µM
[16] = second compound 1 µM, first compound 1 µM
[17] = second compound 3.16 µM, first compound 0.0316 µM
[18] = second compound 3.16 µM, first compound 0.1 µM
[19] = second compound 3.16 µM, first compound 0.316 µM
[20] = second compound 3.16 µM, first compound 1 µM
[21] = second compound 10 µM, first compound 0.0316 µM
[22] = second compound 10 µM, first compound 0.1 µM
[23] = second compound 10 µM, first compound 0.316 µM
[24] = second compound 10 µM, first compound 1 µM

## CCN1CCN(Cc2ccc(Nc3ncc(F)c(-c4cc(F)c5nc(C)n(C(C)C)c5c4)n3)nc2)CC1 + C#Cc1c(F)ccc2cc(O)cc(-c3ncc4c(N5CC6CCC(C5)N6)nc(OCC56CCCN5CC(F)C6)nc4c3F)c12
Second compound 0.0316 µM
  IC50: > 1 µM
Second compound 0.1 µM
  IC50: > 1 µM
Second compound 0.316 µM
  IC50: > 1 µM
Second compound 1 µM
  IC50: > 1 µM
Second compound 3.16 µM
  IC50: > 1 µM
Second compound 10 µM
  IC50: > 1 µM
Second compound 0.0316 µM, first compound 0.00316 µM
  viability, T/C: 101%
Second compound 0.0316 µM, first compound 0.01 µM
  viability, T/C: 102%
[1]
  viability, T/C: 108%
[2]
  viability, T/C: 106%
[3]
  viability, T/C: 120%
[4]
  viability, T/C: 107%
Second compound 0.1 µM, first compound 0.00316 µM
  viability, T/C: 92.2%
Second compound 0.1 µM, first compound 0.01 µM
  viability, T/C: 99.1%
[5]
  viability, T/C: 103%
[6]
  viability, T/C: 107%
[7]
  viability, T/C: 118%
[8]
  viability, T/C: 110%
Second compound 0.316 µM, first compound 0.00316 µM
  viability, T/C: 96.6%
Second compound 0.316 µM, first compound 0.01 µM
  viability, T/C: 100%
[9]
  viability, T/C: 103%
[10]
  viability, T/C: 113%
[11]
  viability, T/C: 120%
[12]
  viability, T/C: 115%
Second compound 1 µM, first compound 0.00316 µM
  viability, T/C: 93.2%
Second compound 1 µM, first compound 0.01 µM
  viability, T/C: 102%
[13]
  viability, T/C: 109%
[14]
  viability, T/C: 113%
[15]
  viability, T/C: 117%
[16]
  viability, T/C: 112%
Second compound 3.16 µM, first compound 0.00316 µM
  viability, T/C: 97.8%
Second compound 3.16 µM, first compound 0.01 µM
  viability, T/C: 100%
[17]
  viability, T/C: 104%
[18]
  viability, T/C: 112%
[19]
  viability, T/C: 120%
[20]
  viability, T/C: 115%
Second compound 10 µM, first compound 0.00316 µM
  viability, T/C: 98.5%
Second compound 10 µM, first compound 0.01 µM
  viability, T/C: 100%
[21]
  viability, T/C: 99.2%
[22]
  viability, T/C: 109%
[23]
  viability, T/C: 118%
[24]
  viability, T/C: 57.3%

## Cc1nc(N2CCC3(CC2)COC(C)C3N)c(CO)nc1Sc1ccnc(N)c1Cl (centres undefined) + C#Cc1c(F)ccc2cc(O)cc(-c3ncc4c(N5CC6CCC(C5)N6)nc(OCC56CCCN5CC(F)C6)nc4c3F)c12
Second compound 0.0316 µM
  IC50: > 10 µM
Second compound 0.1 µM
  IC50: > 10 µM
Second compound 0.316 µM
  IC50: > 10 µM
Second compound 1 µM
  IC50: > 10 µM
Second compound 3.16 µM
  IC50: > 10 µM
Second compound 10 µM
  IC50: > 10 µM
[1]
  viability, T/C: 101%
[2]
  viability, T/C: 95.1%
[3]
  viability, T/C: 98%
[4]
  viability, T/C: 98.7%
Second compound 0.0316 µM, first compound 3.16 µM
  viability, T/C: 98.4%
Second compound 0.0316 µM, first compound 10 µM
  viability, T/C: 99.5%
[5]
  viability, T/C: 97.3%
[6]
  viability, T/C: 97.6%
[7]
  viability, T/C: 95.3%
[8]
  viability, T/C: 99%
Second compound 0.1 µM, first compound 3.16 µM
  viability, T/C: 99%
Second compound 0.1 µM, first compound 10 µM
  viability, T/C: 107%
[9]
  viability, T/C: 96%
[10]
  viability, T/C: 97.3%
[11]
  viability, T/C: 99%
[12]
  viability, T/C: 101%
Second compound 0.316 µM, first compound 3.16 µM
  viability, T/C: 101%
Second compound 0.316 µM, first compound 10 µM
  viability, T/C: 102%
[13]
  viability, T/C: 93.4%
[14]
  viability, T/C: 102%
[15]
  viability, T/C: 102%
[16]
  viability, T/C: 100%
Second compound 1 µM, first compound 3.16 µM
  viability, T/C: 103%
Second compound 1 µM, first compound 10 µM
  viability, T/C: 103%
[17]
  viability, T/C: 103%
[18]
  viability, T/C: 99.8%
[19]
  viability, T/C: 99.5%
[20]
  viability, T/C: 101%
Second compound 3.16 µM, first compound 3.16 µM
  viability, T/C: 102%
Second compound 3.16 µM, first compound 10 µM
  viability, T/C: 104%
[21]
  viability, T/C: 99.9%
[22]
  viability, T/C: 104%
[23]
  viability, T/C: 106%
[24]
  viability, T/C: 103%
Second compound 10 µM, first compound 3.16 µM
  viability, T/C: 103%
Second compound 10 µM, first compound 10 µM
  viability, T/C: 85.6%
